From ChEMBL document CHEMBL5252625, “Development of sulfonium tethered peptides conjugated with HDAC inhibitor to improve selective toxicity for cancer cells” (Bioorg Med Chem, 2023)
Activity calls are given as the source filed them. No cut-off for these calls is given here. Non-standard residues stand in square brackets, D forms with d. Residues, ends and D or L forms follow the SMILES beside them. *: point of attachment. Ahx = NCCCCCC(=O)O; NHOH = ON*

Assays:
Huh-7 [1] = assay: Anticancer activity in human Huh-7 cells assessed as change in BCL2L11gene expression by KEGG analysis; assay type: functional, cell-based
Huh-7 [2] = assay: Anticancer activity in human Huh-7 cells assessed as change in WNT6 gene expression by KEGG analysis; assay type: functional, cell-based
Huh-7 [3] = assay: Anticancer activity in human Huh-7 cells assessed as change in BMP4 gene expression by KEGG analysis; assay type: functional, cell-based
Huh-7 [4] = assay: Anticancer activity in human Huh-7 cells assessed as change in JAK2 gene expression by KEGG analysis; assay type: functional, cell-based
Huh-7 [5] = assay: Anticancer activity in human Huh-7 cells assessed as change in BMP2 gene expression by KEGG analysis; assay type: functional, cell-based
Huh-7 [6] = assay: Anticancer activity in human Huh-7 cells assessed as change in TP53 gene expression by KEGG analysis; assay type: functional, cell-based
Histone deacetylase = assay: Inhibition of HDAC in human HeLa cell extracts using Boc-Lys(Ac)-AM as substrate by fluorescence based analysis
[7] = Stability in mouse serum measured upto 24 hrs by LC/MS analysis; assay type: ADME, cell-free
Huh-7 [8] = assay: Antiproliferative activity against human Huh-7 cells incubated for 48 hrs by CCK8 method; assay type: functional, cell-based; conditions: Huh-7, 48 h
HepG2 = assay: Antiproliferative activity against human HepG2 cells incubated for 48 hrs by CCK8 method; assay type: functional, cell-based; conditions: HepG2, 48 h
HT-29 = assay: Antiproliferative activity against human HT-29 cells incubated for 48 hrs by CCK8 method; assay type: functional, cell-based; conditions: HT-29, 48 h
Huh-7 [9] = assay: Induction of apoptosis in human Huh-7 cells assessed as viable cells at 20 uM incubated for 24 hrs by FITC Annexin V/propidium iodide staining based flow cytometry analysis (reference value: 92.6%); assay type: functional; conditions: read-out: Activity
Huh-7 [10] = assay: Induction of apoptosis in human Huh-7 cells assessed as early apoptotic cells at 20 uM incubated for 24 hrs by FITC Annexin V/propidium iodide staining based flow cytometry analysis (reference value: 1.85%); assay type: functional
Huh-7 [11] = assay: Induction of apoptosis in human Huh-7 cells assessed as late apoptotic cells at 20 uM incubated for 24 hrs by FITC Annexin V/propidium iodide staining based flow cytometry analysis (reference value: 5.19%); assay type: functional
Huh-7 [12] = assay: Induction of apoptosis in human Huh-7 cells assessed as necrotic cells at 20 uM incubated for 24 hrs by FITC Annexin V/propidium iodide staining based flow cytometry analysis (reference value: 0.401%); assay type: functional
Huh-7 [13] = assay: Induction of cell cycle arrest in human Huh-7 cells assessed as accumulation of cells at sub G1 phase at 20 uM incubated for 24 hrs by FACscan flow cytometer analysis relative to control; assay type: functional
Huh-7 [14] = assay: Induction of cell cycle arrest in human Huh-7 cells assessed as accumulation of cells at G1 phase at 20 uM incubated for 24 hrs by FACscan flow cytometer analysis (reference value: 39.68%); assay type: functional
Huh-7 [15] = assay: Induction of cell cycle arrest in human Huh-7 cells assessed as accumulation of cells at S phase at 20 uM incubated for 24 hrs by FACscan flow cytometer analysis (reference value: 41.7%); assay type: functional
Huh-7 [16] = assay: Induction of cell cycle arrest in human Huh-7 cells assessed as accumulation of cells at G2 phase at 20 uM incubated for 24 hrs by FACscan flow cytometer analysis (reference value: 25.74%); assay type: functional
[17] = target: T1, Histone deacetylase (Homo sapiens) (UniProt Q13547+O15379+Q9UBN7+Q92769+Q9UQL6+Q8WUI4+Q9BY41+Q96DB2+P56524+Q9UKV0+Q969S8); assay: Inhibition of HDAC in human Huh-7 cells assessed as increase in histone H3 acetylation at 20 to 40 uM incubated for 24 hrs by Western blot analysis; assay type: cell-based; conditions: dose 20-40 µM
[18] = target: T1, Histone deacetylase (Homo sapiens); assay: Inhibition of HDAC in human HepG2 cells assessed as increase in histone H3 acetylation at 20 to 40 uM incubated for 24 hrs by Western blot analysis; assay type: cell-based; conditions: dose 20-40 µM
[19] = Hemolytic activity in mouse erythrocytes assessed as hemolysis at 80 uM incubated for 1.5 hrs by microplate reader assay; assay type: toxicity, cell-based; conditions: erythrocyte
Huh-7 [20] = assay: Induction of apoptosis in human Huh-7 cells assessed as viable cells at 10 uM incubated for 24 hrs by FITC Annexin V/propidium iodide staining based flow cytometry analysis (reference value: 92.6%); assay type: functional; conditions: read-out: Activity
Huh-7 [21] = assay: Induction of apoptosis in human Huh-7 cells assessed as early apoptotic cells at 10 uM incubated for 24 hrs by FITC Annexin V/propidium iodide staining based flow cytometry analysis (reference value: 1.85%); assay type: functional
Huh-7 [22] = assay: Induction of apoptosis in human Huh-7 cells assessed as late apoptotic cells at 10 uM incubated for 24 hrs by FITC Annexin V/propidium iodide staining based flow cytometry analysis (reference value: 5.19%); assay type: functional
Huh-7 [23] = assay: Induction of apoptosis in human Huh-7 cells assessed as necrotic cells at 10 uM incubated for 24 hrs by FITC Annexin V/propidium iodide staining based flow cytometry analysis (reference value: 0.401%); assay type: functional
Huh-7 [24] = assay: Induction of cell cycle arrest in human Huh-7 cells assessed as accumulation of cells at sub G1 phase at 10 uM incubated for 24 hrs by FACscan flow cytometer analysis relative to control; assay type: functional
Huh-7 [25] = assay: Induction of cell cycle arrest in human Huh-7 cells assessed as accumulation of cells at G1 phase at 10 uM incubated for 24 hrs by FACscan flow cytometer analysis (reference value: 39.68%); assay type: functional
Huh-7 [26] = assay: Induction of cell cycle arrest in human Huh-7 cells assessed as accumulation of cells at S phase at 10 uM incubated for 24 hrs by FACscan flow cytometer analysis (reference value: 41.7%); assay type: functional
Huh-7 [27] = assay: Induction of cell cycle arrest in human Huh-7 cells assessed as accumulation of cells at G2 phase at 10 uM incubated for 24 hrs by FACscan flow cytometer analysis (reference value: 25.74%); assay type: functional
[28] = target: T1, Histone deacetylase (Homo sapiens); assay: Inhibition of HDAC in human Huh-7 cells assessed as increase in histone H3 acetylation at 20 uM incubated for 24 hrs by Western blot analysis; assay type: cell-based
[29] = target: T1, Histone deacetylase (Homo sapiens); assay: Inhibition of HDAC in human HepG2 cells assessed as increase in histone H3 acetylation at 20 uM incubated for 24 hrs by Western blot analysis; assay type: cell-based
[30] = Cytotoxicity activity against human HEK293T cells incubated for 48 hrs by CCK8 method; assay type: toxicity, cell-based, HEK-293T
[31] = Drug uptake in human Huh-7 cells assessed as cell penetration incubated for 24 hrs by flow cytometry analysis; assay type: ADME, cell-based; conditions: huh-7, 24 h
[32] = Drug localization in human Huh-7 cells incubated for 24 hrs by DAPI staining based microscopy analysis; assay type: ADME, cell-based; conditions: huh-7, 24 h
Huh-7 [33] = assay: Induction of apoptosis in human Huh-7 cells assessed as viable cells at 5 uM incubated for 24 hrs by FITC Annexin V/propidium iodide staining based flow cytometry analysis (reference value: 92.6%); assay type: functional; conditions: read-out: Activity
Huh-7 [34] = assay: Induction of apoptosis in human Huh-7 cells assessed as early apoptotic cells at 5 uM incubated for 24 hrs by FITC Annexin V/propidium iodide staining based flow cytometry analysis (reference value: 1.85%); assay type: functional
Huh-7 [35] = assay: Induction of apoptosis in human Huh-7 cells assessed as late apoptotic cells at 5 uM incubated for 24 hrs by FITC Annexin V/propidium iodide staining based flow cytometry analysis (reference value: 5.19%); assay type: functional
Huh-7 [36] = assay: Induction of apoptosis in human Huh-7 cells assessed as necrotic cells at 5 uM incubated for 24 hrs by FITC Annexin V/propidium iodide staining based flow cytometry analysis (reference value: 0.401%); assay type: functional
Huh-7 [37] = assay: Induction of cell cycle arrest in human Huh-7 cells assessed as accumulation of cells at sub G1 phase at 2.5 uM incubated for 24 hrs by FACscan flow cytometer analysis relative to control; assay type: functional
Huh-7 [38] = assay: Induction of cell cycle arrest in human Huh-7 cells assessed as accumulation of cells at G1 phase at 2.5 uM incubated for 24 hrs by FACscan flow cytometer analysis (reference value: 39.68%); assay type: functional
Huh-7 [39] = assay: Induction of cell cycle arrest in human Huh-7 cells assessed as accumulation of cells at S phase at 2.5 uM incubated for 24 hrs by FACscan flow cytometer analysis (reference value: 41.7%); assay type: functional
Huh-7 [40] = assay: Induction of cell cycle arrest in human Huh-7 cells assessed as accumulation of cells at G2 phase at 2.5 uM incubated for 24 hrs by FACscan flow cytometer analysis (reference value: 25.74%); assay type: functional

| SMILES | IC50 (Histone deacetylase) | IC50 (Huh-7 [8]) | IC50 (HepG2) | IC50 (HT-29) | viability at 10 µM (Huh-7 [20]) | Activity (Huh-7 [21]) | Activity (Huh-7 [22]) | Activity (Huh-7 [23]) | Activity (Huh-7 [24]) | Activity (Huh-7 [25]) | Activity (Huh-7 [26]) | Activity (Huh-7 [27]) | inhibition [28] | inhibition [29] | also measured |
| --- | --- | --- | --- | --- | --- | --- | --- | --- | --- | --- | --- | --- | --- | --- | --- |
| CC(=O)N[C@@H](CCCNC(=N)N)C(=O)N[C@@H](CC(C)C)C(=O)N[C@@H](CC(C)C)C(=O)N[C@@H](CCCNC(=N)N)C(=O)N[C@@H](CC(C)C)C(=O)N[C@H]1CC[S+](C)Cc2cccc(c2)C[S+](C)CC[C@@H](C(=O)N[C@@H](CC(C)C)C(=O)N[C@@H](CC(C)C)C(=O)N[C@@H](CCCNC(=N)N)C(=O)N[C@@H](CC(C)C)C(=O)NCCCCCC(=O)NO)NC(=O)[C@H](CCCNC(=N)N)NC(=O)[C@H](CC(C)C)NC(=O)[C@H](CCCNC(=N)N)NC1=O (some centres undefined) | 0.31 µM | 43.7 µM | 52.2 µM | 54.6 µM |  |  |  |  |  |  |  |  |  |  | Activity (Huh-7 [1]): Active; Activity (Huh-7 [2]): Active; Activity (Huh-7 [3]): Active; Activity (Huh-7 [4]): Active; Activity (Huh-7 [5]): Active; Activity (Huh-7 [6]): Active; Stability [7]: Stable; viability at 20 µM (Huh-7 [9]): 73%; Activity (Huh-7 [10]): 4.97%; Activity (Huh-7 [11]): 18.2%; Activity (Huh-7 [12]): 3.89%; Activity (Huh-7 [13]): 2.98%; Activity (Huh-7 [14]): 51.86%; Activity (Huh-7 [15]): 33.25%; Activity (Huh-7 [16]): 17.34%; inhibition [17]: Active; inhibition [18]: Active |
| CC(=O)N[C@@H](CCCNC(=N)N)C(=O)N[C@@H](CC(C)C)C(=O)N[C@@H](CC(C)C)C(=O)N[C@@H](CCCNC(=N)N)C(=O)N[C@@H](CC(C)C)C(=O)N[C@H]1CC[S+](C)Cc2cccc(c2)C[S+](C)CC[C@@H](C(=O)N[C@@H](CC(C)C)C(=O)N[C@@H](CC(C)C)C(=O)N[C@@H](CCCNC(=N)N)C(=O)N[C@@H](CC(C)C)C(=O)O)NC(=O)[C@H](CCCNC(=N)N)NC(=O)[C@H](CC(C)C)NC(=O)[C@H](CCCNC(=N)N)NC1=O (some centres undefined) | > 100 µM |  |  |  |  |  |  |  |  |  |  |  |  |  |  |
| CSCC[C@H](NC(=O)[C@H](CCCNC(=N)N)NC(=O)[C@H](CC(C)C)NC(=O)[C@H](CCCNC(=N)N)NC(=O)[C@H](CCSC)NC(=O)[C@H](CC(C)C)NC(=O)[C@H](CCCNC(=N)N)NC(=O)[C@H](CC(C)C)NC(=O)[C@H](CC(C)C)NC(=O)[C@H](CCCNC(=N)N)NC(C)=O)C(=O)N[C@@H](CC(C)C)C(=O)N[C@@H](CC(C)C)C(=O)N[C@@H](CCCNC(=N)N)C(=O)N[C@@H](CC(C)C)C(N)=O (Ac-RLLRLMRLRMLLRL-NH2) | > 100 µM |  |  |  | 69.6% | 3.93% | 21.1% | 5.39% | 6.9% | 58.07% | 36.8% | 6.43% | inactive | inactive | Activity [19]: Toxic |
| CSCC[C@H](NC(=O)[C@H](CCCNC(=N)N)NC(=O)[C@H](CC(C)C)NC(=O)[C@H](CCCNC(=N)N)NC(=O)[C@H](CCSC)NC(=O)[C@H](CC(C)C)NC(=O)[C@H](CCCNC(=N)N)NC(=O)[C@H](CC(C)C)NC(=O)[C@H](CC(C)C)NC(=O)[C@H](CCCNC(=N)N)NC(C)=O)C(=O)N[C@@H](CC(C)C)C(=O)N[C@@H](CC(C)C)C(=O)N[C@@H](CCCNC(=N)N)C(=O)N[C@@H](CC(C)C)C(=O)NCCCCCC(=O)NO (Ac-RLLRLMRLRMLLRL[Ahx]-{NHOH}) | 0.446 µM | 28.1 µM | 34 µM | 42.6 µM | 75% | 5.46% | 16.5% | 3.03% | 10.82% | 47.63% | 37.76% | 9.53% | Active | Active | IC50 at 48 h [30]: 39.8 µM; Drug uptake [31]: Active; Drug uptake [32]: Active |
| O=C(CCCCCCC(=O)Nc1ccccc1)NO [VORINOSTAT] |  |  |  |  |  |  |  |  |  |  |  |  |  |  | viability at 5 µM (Huh-7 [33]): 47.2%; Activity (Huh-7 [34]): 6.4%; Activity (Huh-7 [35]): 37%; Activity (Huh-7 [36]): 9.35%; Activity (Huh-7 [37]): 7.16%; Activity (Huh-7 [38]): 46.95%; Activity (Huh-7 [39]): 25.97%; Activity (Huh-7 [40]): 18.46% |
